Reference: US20190225989A1, “GENE KNOCKIN METHOD AND KIT FOR GENE KNOCKIN” (Institute of Hematology and Blood Disease Hospital, CAMS & …, priority 2018, published 2019)

Tests used:
Assay type in all cases: cell-based, human
CTNNB1 locus in iPSCs [1] = assay: Effects of small molecules and factors on HDR efficiency, FACS; details: for effect on HDR efficiency at the CTNNB locus: donor pD-mNeonGreen-sg-HA300-300 bp, added first 24 h: RS-1 10 μM, Nu7441 2 μM, SCR7 1 μM, Brefeldin A 0.1 μM, L755507 5 μM
Text: (§1) In this experiment, the verified highly efficient pD-sg-HA300-300 bp double cut donor and multiple small molecules were used to examine the effects on HDR of both the CTNNB1 and PRDM14 loci in iPSCs. Multiple small molecules include RS-1 (a stimulator of human homologous recombination protein RAD51), NU7441 (a DNA-PKcs inhibitor), SCR7 (a DNA ligase IV inhibitor), Brefeldin A, L755507, and
(§2) iPSCs were evenly split into eight wells after nucleofection with Cas9/sgRNA and the relevant double cut donor (pD-mNeonGreen-sg-HA300-300 bp or pD-GFP-sg-HA300-300 bp). DMSO control (0.1%), RS-1 (10 μM), Nu7441 (2 μM), SCR7 (1 μM), Brefeldin A (0.1 μM), L755507 (5 μM), Nocodazole (100 ng/mL), or Nu7441 (2 μM) and SCR7 (1 μM) were added in the wells for the first 24 h and then the medium was changed with fresh medium thereafter. Three days after nucleofection, cells were harvested for FACS analysis to determine the HDR efficiency in each condition.
(§3) The plasmid encoding RAD51, Ad4E1B-Eorf46, or CCND1 was co-transfected with Cas9, sgRNA, and donor plasmid (pD-mNeonGreen-sg-HA300-300 bp or pD-GFP-sg-HA300-300 bp). Three days after transfection, cells were harvested for FACS analysis to determine the HDR efficiency in each condition.
(§4) In this experiment, CCND1 and Nocodazole were used together to examine the effects on HDR of both the CTNNB1 and PRDM14 loci in iPSCs. The plasmid encoding CCND1 was co-transfected with Cas9, sgRNA, and donor plasmid (pD-mNeonGreen-sg-HA300-300 bp or pD-GFP-sg-HA300-300 bp). Nocodazole (100 ng/mL) was added into the medium at 0-24 h after transfection. Three days after incubation, cells were harvested for FACS analysis to determine the HDR efficiency in each condition.

PRDM14 locus in iPSCs [2] = assay: as above
Text: as §1, §2, §3, §4

[3] = test system: CTNNB1 locus in the H1 ES cells; assay: Effects of small molecules on HDR efficiency, FACS; details: FACS day 3; for effect on HDR efficiency at the CTNNB locus: donor pD-mNeonGreen-sg-HA300-300 bp, added first 24 h: RS-1 10 μM, Nu7441 2 μM, SCR7 1 μM, Brefeldin A 0.1 μM, L755507 5 μM
Procedure: as §2, with “In this experiment, the H1 ES cells” for “iPSCs”

[4] = test system: PRDM14 locus in the H1 ES cells; assay: Effects of small molecules on HDR efficiency, FACS; details: FACS day 3; for effect on HDR efficiency at the PRDM14 locus: donor pD-GFP-sg-HA300-300 bp, added first 24 h: RS-1 10 μM, Nu7441 2 μM, SCR7 1 μM, Brefeldin A 0.1 μM, L755507 5 μM
Procedure: as §2, with “In this experiment, the H1 ES cells” for “iPSCs”

PRDM14 locus in iPSCs [5] = assay: sgRNA cleavage efficiency at PRDM14; details: cleavage site 4 bp downstream of the stop codon, data not shown
CTNNB1 locus in iPSCs [6] = assay: sgRNA cleavage efficiency at CTNNB1; details: targets 39 bp before the stop codon, data not shown
[7] = donor pD-GFP-sg-HA300-300 bp, added first 24 h: RS-1 10 μM, Nu7441 2 μM, SCR7 1 μM, Brefeldin A 0.1 μM, L755507 5 μM, FACS day 3, vs DMSO
[8] = Nocodazole 100 ng/mL first 24 h, FACS day 3, vs DMSO, P<0.001
[9] = Nocodazole 100 ng/mL first 24 h

Molecule | effect on HDR efficiency at the CTNNB locus (CTNNB1 locus in iPSCs [1]; FACS day 3, vs DMSO) | effect on HDR efficiency at the PRDM14 locus (PRDM14 locus in iPSCs [2]; [7]) | effect on HDR efficiency at the CTNNB locus [3] | effect on HDR efficiency at the PRDM14 locus [4] | also measured
C[C@H]1CCC/C=C/[C@@H]2C[C@H](O)C[C@H]2[C@H](O)/C=C/C(=O)O1 [Brefeldin A] | less pronounced improvement | only at the CTNNB locus | less pronounced improvement | only at the CTNNB locus | –
sgPRDM14: sgRNA targeting the sequence surrounding the PRDM14 stop codon, GAAGACTACTAGCCCTGCC (SEQ ID NO: 11) (listed as DNA, chemistry not given here) | – | – | – | – | cleavage efficiency (PRDM14 locus in iPSCs [5]): ~30%
O=C(Nc1ccc(Br)cc1)c1ccc(Br)c(S(=O)(=O)NCc2ccccc2)c1 [RS-1] | did not show significant improvement | did not show significant improvement | did not show significant improvement | did not show significant improvement | –
O=c1[nH]c(=S)[nH]c(N=Cc2ccccc2)c1N=Cc1ccccc1 [SCR7] | did not show significant improvement | did not show significant improvement | did not show significant improvement | did not show significant improvement | –
O=c1cc(N2CCOCC2)oc2c(-c3cccc4c3sc3ccccc34)cccc12 [Nu7441, NU7441] | less pronounced improvement | only at the CTNNB locus | less pronounced improvement | only at the CTNNB locus | –
CCCCCCNC(=O)Nc1ccc(S(=O)(=O)Nc2ccc(CCNC[C@H](O)COc3ccc(O)cc3)cc2)cc1 [L755507] | did not show significant improvement | did not show significant improvement | did not show significant improvement | did not show significant improvement | –
COC(=O)Nc1nc2ccc(C(=O)c3cccs3)cc2[nH]1 [Nocodazole] | – | – | – | – | increase of HDR efficiency at the CTNNB locus (CTNNB1 locus in iPSCs [1]; [8]): ~50%; increase of HDR efficiency at the PRDM14 locus (PRDM14 locus in iPSCs [2]; [8]): ~50%; increase of HDR efficiency at the CTNNB locus [3, 9]: ~50%; increase of HDR efficiency at the PRDM14 locus [4, 9]: ~50%
sgCTNNB1: sgRNA targeting 39 bp before the CTNNB1 stop codon, GCTGATTGCTGTCACCTGG (SEQ ID NO: 5) (listed as DNA, chemistry not given here) | – | – | – | – | cleavage efficiency (CTNNB1 locus in iPSCs [6]): 60%
RAD51: key factor in the homologous recombination pathway, given as EF1-driven expression plasmid (protein, UniProt Q06609 2-339, looked up, expressed from EF1 plasmid) DNA repair protein RAD51 …: AMQMQLEANADTSVEEESFGPQPISRLEQCGINANDVKKLEEAGFHTVEAVAYAPKKELINIKGISEAKADKILAEAAKLVPMGFTTATEFHQRRSEIIQITTGSKELDKLLQGGIETGSITEMFGEFRTGKTQICHTLAVTCQLPIDRGGGEGKAMYIDTEGTFRPERLLAVAERYGLSGSDVLDNVAYARAFNTDHQTQLLYQASAMMVESRYALLIVDSATALYRTDYSGRGELSARQMHLARFLRMLLRLADEFGVAVVITNQVVAQVDGAAMFAADPKKPIGGNIIAHASTTRLYLRKGRGETRICKIYDSPCLPEAEAMFAINADGVGDAKD | – | – | – | – | effect on HDR efficiency at the CTNNB1 locus (CTNNB1 locus in iPSCs [1]; expression plasmid co-transfected with Cas9, sgRNA and pD-mNeonGreen-sg-HA300-300 bp, FACS day 3, P<0.001): significantly decreased; effect on HDR efficiency at the PRDM14 locus (PRDM14 locus in iPSCs [2]; expression plasmid co-transfected with Cas9, sgRNA and pD-GFP-sg-HA300-300 bp, FACS day 3, P<0.001): significantly decreased
